{"source": "BindingDB's records for doi:10.1021/jm00100a013", "about": "(Medical University of South Carolina, 1992)", "target": "Folylpolyglutamate synthase (Sus scrofa)", "experiment": "Inhibitory activity against hog liver Folyl polyglutamate synthetase (FPGS)", "data": [{"smiles": "NCCCC(NC(=O)c1ccc(CNc2ccc3nc(N)[nH]c(=O)c3c2F)cc1)C(=O)O", "note": "(centres undefined)", "values": [{"measurement": "Ki", "result": 900, "unit": "nM"}]}, {"smiles": "NCCCC(NC(=O)c1ccc(CNc2ccc3nc(N)[nH]c(=O)c3c2C(F)(F)F)cc1)C(=O)O", "note": "(centres undefined)", "values": [{"measurement": "Ki", "result": 11, "unit": "nM"}]}, {"smiles": "NCCCC(NC(=O)c1ccc(NCc2ccc3nc(N)[nH]c(=O)c3c2C(F)(F)F)cc1)C(=O)O", "note": "(centres undefined)", "values": [{"measurement": "Ki", "result": 8.8, "unit": "nM"}]}, {"smiles": "NCCCC(NC(=O)c1ccc(CNc2ccc3nc(N)[nH]c(=O)c3c2Cl)cc1)C(=O)O", "note": "(centres undefined)", "values": [{"measurement": "Ki", "result": 500, "unit": "nM"}]}]}
